US20080176827A1, “New Pyridine Analogues VII 543” (ASTRAZENECA AB, priority 2007, published 2008)
Where two headings read alike, the source gives them in different places.

Target: T1, P2Y12 receptor (Homo sapiens, UniProt Q9H244)
T1 construct: expressed in transfected cells; host or cells: CHO cells (membranes)
Test: Functional inhibition of 2-Me-S-ADP induced P2Y12 signalling (35S-GTPγS binding, membranes from P2Y12 transfected CHO-cells)
Type: biochemical
Conditions: EC80 agonist, CHO-cell membranes
Protocol: Functional inhibition of-the P2Y12 receptor can be measured by in vitro assays using cell membranes from P2Y12 transfected CHO-cells, the methodology is indicated below. […] The reaction was allowed to proceed at 30° C. for 45 min. Samples were then transferred on to GF/B filters using a cell harvester and washed with wash buffer (50 mM Tris (pH 7.4), 5 mM MgCl2, 50 mM NaCl). Filters were then covered with scintilant and counted for the amount of ^35S-GTPγS retained by the filter. Maximum activity was that determined in the presence of the agonist and minimum activity in the absence of the agonist following subtraction of the value determined for non-specific activity. The effect of compounds at various concentrations was plotted according to the equation […]))) and IC50 estimated where A is the bottom plateau of the curve i.e. the final minimum y value B is the top of the plateau of the curve i.e. the final maximum y value C is the x value at the middle of the curve. […] Y is the original known y values. […] The reaction was allowed to proceed at 30° C. for 45 min. Samples were then transferred on to GF/B filters using a cell harvester and washed with wash buffer (50 mM Tris (pH 7.4), 5 mM MgCl2, 50 mM NaCl). Filters were then covered with scintilant and counted for the amount of ^35S-GTPγS retained by the filter. Maximum activity was that determined in the presence of the agonist and minimum activity in the absence of the agonist following subtraction of the value determined for non-specific activity. The effect of compounds at various concentrations was plotted according to the equation […]))) and IC50 estimated where A is the bottom plateau of the curve i.e. the final minimum y value B is the top of the plateau of the curve i.e. the final maximum y value C is the x value at the middle of the curve. […] Y is the original known y values.

[1] = value given in each example, read-out: GTPγS(IC50 μM)

T1 sequence (Q9H244 whole entry): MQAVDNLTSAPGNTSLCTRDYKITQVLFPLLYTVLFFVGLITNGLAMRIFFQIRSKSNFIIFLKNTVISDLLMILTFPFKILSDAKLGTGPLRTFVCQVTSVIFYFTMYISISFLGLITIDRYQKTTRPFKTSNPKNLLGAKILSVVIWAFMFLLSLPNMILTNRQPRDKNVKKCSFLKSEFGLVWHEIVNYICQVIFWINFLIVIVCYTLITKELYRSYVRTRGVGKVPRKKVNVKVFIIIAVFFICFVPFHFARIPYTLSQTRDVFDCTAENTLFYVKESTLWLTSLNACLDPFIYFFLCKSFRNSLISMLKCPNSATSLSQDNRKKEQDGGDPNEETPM

Molecule	IC50 [1] [µM]	IC50 (read-out: IC50) [µM]
CCOC(=O)c1cc(C#N)c(N2CCC(CC(=O)NS(=O)(=O)Cc3ccccc3)C2)nc1C (stereo not shown) [Example 1, Ethyl 6-(3-{2-[(benzylsulfonyl)amino]-2-oxoethyl}pyrrolidin-1-yl)-5-cyano-2-methylnicotinate]	0.143	–
CCOC(=O)c1cc(C#N)c(N2CCC(CC(=O)NS(=O)(=O)CCc3ccccc3)C2)nc1C (stereo not shown) [Example 2, Ethyl 5-cyano-2-methyl-6-[3-(2-oxo-2-{[(2-phenylethyl)sulfonyl]amino}ethyl)pyrrolidin-1-yl]nicotinate]	0.12	–
Cc1nc(N2CCC(C(=O)NS(=O)(=O)Cc3ccc(F)cc3)CC2)c(C#N)cc1C(=O)OCC(F)(F)F [Example 3, 2,2,2-Trifluoroethyl 5-cyano-6-(4-{[(4-fluorobenzyl)sulfonyl]carbamoyl}piperidin-1-yl)-2-methylnicotinate]	0.024	–
CCOC(=O)c1cc(C#N)c(N2CC(C(=O)NS(=O)(=O)Cc3cc(C)ccc3F)C2)nc1C [Example 4, Ethyl 5-cyano-6-(3-{[(2-fluoro-5-methylbenzyl)sulfonyl]carbamoyl}azetidin-1-yl)-2-methylnicotinate]	0.018	–
CCOC(=O)c1cc(C#N)c(N2CCC(C(=O)NS(=O)(=O)Cc3ccccc3)C(C)C2)nc1C (stereo not shown) [Example 5, Ethyl 6-{4-[(benzylsulfonyl)carbamoyl]-3-methylpiperidin-1-yl}-5-cyano-2-methylnicotinate]	0.067	0.07
CCOC(=O)c1cc(C#N)c(N2CCC(C(=O)NS(=O)(=O)Cc3ccccc3)CC2)nc1NC [Example 6, Ethyl 6-{4-[(benzylsulfonyl)carbamoyl]piperidin-1-yl}-5-cyano-2-(methylamino)nicotinate]	0.044	–
CCOC(=O)c1cc(C#N)c(N2CCC(C(=O)NS(=O)(=O)Cc3cc(C)ccc3F)CC2)nc1C [Example 7, Ethyl 5-cyano-6-(4-{[(2-fluoro-5-methylbenzyl)sulfonyl]carbamoyl}piperidin-1-yl)-2-methylnicotinate]	0.035	–
CCOC(=O)c1cc(C#N)c(N2CCC(C(=O)NS(=O)(=O)Cc3cccc(OC)c3)CC2)nc1C [Example 8, Ethyl 5-cyano-6-(4-{[(3-methoxybenzyl)sulfonyl]carbamoyl}piperidin-1-yl)-2-methylnicotinate]	0.074	–
CCOC(=O)c1cc(C#N)c(N2CC(C(=O)NS(=O)(=O)Cc3c(F)cccc3F)C2)nc1CC [Example 9, Ethyl 5-cyano-6-(3-{[(2,6-difluorobenzyl)sulfonyl]carbamoyl}azetidin-1-yl)-2-ethylnicotinate]	0.046	–
CCOC(=O)c1cc(C#N)c(N2CC(C(=O)NS(=O)(=O)Cc3ccc(F)c(C)c3)C2)nc1CC [Example 10, Ethyl 5-cyano-2-ethyl-6-(3-{[(4-fluoro-3-methylbenzyl)sulfonyl]carbamoyl}azetidin-1-yl)nicotinate]	0.064	–
CCOC(=O)c1cc(C#N)c(N2CC(C(=O)NS(=O)(=O)Cc3ccc(F)cc3Cl)C2)nc1CC [Example 11, Ethyl 6-(3-{[(2-chloro-4-fluorobenzyl)sulfonyl]carbamoyl}azetidin-1-yl)-5-cyano-2-ethylnicotinate]	0.036	–
CCOC(=O)c1cc(C#N)c(N2CCC(C(=O)NS(=O)(=O)Cc3cc(F)ccc3C)CC2)nc1C [Example 12, Ethyl 5-cyano-6-(4-{[(5-fluoro-2-methylbenzyl)sulfonyl]carbamoyl}piperidin-1-yl)-2-methylnicotinate]	0.49	–
CCOC(=O)c1cc(C#N)c(N2CCC(C(=O)NS(=O)(=O)Cc3c(F)ccc(F)c3F)CC2)nc1C [Example 13, ethyl 5-cyano-2-methyl-6-(4-{[(2,3,6-trifluorobenzyl)sulfonyl]carbamoyl}piperidin-1-yl)nicotinate]	0.071	–
CCOC(=O)c1cc(C#N)c(N2CCC(C(=O)NS(=O)(=O)Cc3ccc(F)cc3F)CC2)nc1C [Example 14, Ethyl 5-cyano-6-(4-{[(2,4-difluorobenzyl)sulfonyl]carbamoyl}piperidin-1-yl)-2-methylnicotinate]	0.016	–
CCOC(=O)c1cc(C#N)c(N2CCC(C(=O)NS(=O)(=O)Cc3c(F)cccc3F)CC2)nc1CC [Example 15, Ethyl 5-cyano-6-(4-{[(2,6-difluorobenzyl)sulfonyl]carbamoyl}piperidin-1-yl)-2-ethylnicotinate]	0.048	–
CCOC(=O)c1cc(C#N)c(N2CCC(C(=O)NS(=O)(=O)Cc3ccc(F)cc3Cl)CC2)nc1CC [Example 16, Ethyl 6-(4-{[(2-chloro-4-fluorobenzyl)sulfonyl]carbamoyl}piperidin-1-yl)-5-cyano-2-ethylnicotinate]	0.211	–
CCOC(=O)c1cc(C#N)c(N2CCC(C(=O)NS(=O)(=O)Cc3c(F)ccc(F)c3F)CC2)nc1CC [Example 17, Ethyl 5-cyano-2-ethyl-6-(4-{[(2,3,6-trifluorobenzyl)sulfonyl]carbamoyl}piperidin-1-yl)nicotinate]	0.097	–
CCOC(=O)c1cc(C#N)c(N2CCC(C(=O)NS(=O)(=O)Cc3ccc(F)cc3F)CC2)nc1CC [Example 18, Ethyl 5-cyano-6-(4-{[(2,4-difluorobenzyl)sulfonyl]carbamoyl}piperidin-1-yl)-2-ethylnicotinate]	0.02	–
CCOC(=O)c1cc(C#N)c(N2CC(C(=O)NS(=O)(=O)Cc3ccc(F)cc3F)C2)nc1C [Example 20, Ethyl 5-cyano-6-(3-{[(2,4-difluorobenzyl)sulfonyl]carbamoyl}azetidin-1-yl)-2-methylnicotinate]	0.035	–
CCOC(=O)c1cc(C#N)c(N2CC(C(=O)NS(=O)(=O)Cc3ccc(F)cc3F)C2)nc1CC [Example 21, Ethyl 5-cyano-6-(3-{[(2,4-difluorobenzyl)sulfonyl]carbamoyl}azetidin-1-yl)-2-ethylnicotinate]	0.03	–
CCOC(=O)c1cc(C#N)c(N2CC(C(=O)NS(=O)(=O)Cc3ccc(F)cc3)C2)nc1CC [Example 22, Ethyl 5-cyano-2-ethyl-6-(3-{[(4-fluorobenzyl)sulfonyl]carbamoyl}azetidin-1-yl)nicotinate]	0.041	–
CCOC(=O)c1cc(C#N)c(N2CC(C(=O)NS(=O)(=O)Cc3ccc(Cl)cc3)C2)nc1CC [Example 23, Ethyl 6-(3-{[(4-chlorobenzyl)sulfonyl]carbamoyl}azetidin-1-yl)-5-cyano-2-ethylnicotinate]	0.022	–
CCOC(=O)c1cc(C#N)c(N2CCC(C(=O)NS(=O)(=O)Cc3ccc(F)cc3)CC2)nc1CC [Example 24, Ethyl 5-cyano-2-ethyl-6-(4-{[(4-fluorobenzyl)sulfonyl]carbamoyl}piperidin-1-yl)nicotinate]	0.036	–
CCOC(=O)c1cc(C#N)c(N2CCC(C(=O)NS(=O)(=O)Cc3ccc(Cl)cc3)CC2)nc1CC [Example 25, Ethyl 6-(4-{[(4-chlorobenzyl)sulfonyl]carbamoyl}piperidin-1-yl)-5-cyano-2-ethylnicotinate]	0.04	–
CCOC(=O)c1cc(C#N)c(N2CC(C(=O)NS(=O)(=O)Cc3ccccc3F)C2)nc1C [Example 26, Ethyl 5-cyano-6-(3-{[(2-fluorobenzyl)sulfonyl]carbamoyl}azetidin-1-yl)-2-methylnicotinate]	0.035	–
CCOC(=O)c1cc(C#N)c(N2CCC(C(=O)NS(=O)(=O)Cc3ccccc3F)CC2)nc1C [Example 27, Ethyl 5-cyano-6-(4-{[(2-fluorobenzyl)sulfonyl]carbamoyl}piperidin-1-yl)-2-methylnicotinate]	0.026	–
CCOC(=O)c1cc(C#N)c(N2CCC(C(=O)NS(=O)(=O)Cc3ccccc3)C(CCC(=O)OCc3ccccc3)C2)nc1C (stereo not shown) [Example 28, Ethyl 6-{3-[3-(benzyloxy)-3-oxopropyl]-4-[(benzylsulfonyl)carbamoyl]piperidin-1-yl}-5-cyano-2-methylnicotinate]	0.442	–
CCOC(=O)c1cc(C#N)c(N2CCC(C(=O)NS(=O)(=O)Cc3ccc(F)cc3F)C(CCC(=O)OCc3ccccc3)C2)nc1C (stereo not shown) [Example 29, Ethyl 6-(3-[3-(benzyloxy)-3-oxopropyl]-4-{[(2,4-difluorobenzyl)sulfonyl]carbamoyl}piperidin-1-yl)-5-cyano-2-methylnicotinate]	0.382	–
CCOC(=O)c1cc(C#N)c(N2CCC(C(=O)NS(=O)(=O)Cc3ccccc3)C(CCC(=O)O)C2)nc1C (stereo not shown) [Example 30, 3-{4-[(Benzylsulfonyl)carbamoyl]-1-[3-cyano-5-(ethoxycarbonyl)-6-methylpyridin-2-yl]piperidin-3-yl}propanoic Acid]	0.057	–
Ethyl 6-(4-{[(4-chloro-2-fluorobenzyl)sulfonyl]carbamoyl}piperidin-1-yl)-5-cyano-2-ethylnicotinate [Example 19]	0.01	–
